SMILES strings stand for the structures. Active and inactive are the calls of the source. The rule behind the calls is not given here.

System in one test: not listed separately
As to the kind of experiment: Cytotoxicity in human A549 cells assessed as decrease in cell viability after 44 hrs by XTT assay. Format: functional, cell-based. The settings on record: A549, 44 h. (Tetrazolium assays rely on reduction of a dye to a coloured formazan, in cell work by metabolically active cells.)
On to `N=C(N)NC(=O)CC[C@H](NC(=O)c1sccc1NS(=O)(=O)c1ccccc1[N+](=O)[O-])C(=O)O`, for which the concentration for half-maximal inhibition (IC50) (commonly the concentration that inhibits the measured activity by half) is less than 20 µM.
The same measure, in the same setting: the figure for `N=C(N)NCCC[C@H](NC(=O)c1sccc1NS(=O)(=O)c1ccccc1N)C(=O)O` is less than 20 µM.
With `N=C(N)NCCC[C@H](NC(=O)c1sccc1NS(=O)(=O)c1cc2ccccc2s1)C(=O)O`, the IC50 is less than 20 µM.
Take `Cc1cc(CNc2cccc(S(=O)(=O)Nc3ccsc3C(=O)N[C@@H](CCCNC(=N)N)C(=O)O)c2)n(C)n1`: the IC50 is less than 20 µM.
On the same count and under the same terms, with `N=C(N)NCCC[C@H](NC(=O)c1sccc1NS(=O)(=O)c1cccc(NCc2ccccn2)c1)C(=O)O` the figure was less than 20 µM; with `N=C(N)NCCC[C@H](NC(=O)c1sccc1NS(=O)(=O)c1cccc(CCCN)c1)C(=O)O`, less than 20 µM.
Same read-out and setting: the figure for `Cc1noc(C)c1-c1cccc(S(=O)(=O)Nc2ccsc2C(=O)N[C@@H](CCCNC(=N)N)C(=O)O)c1` is less than 20 µM; for `Cc1ccc2nsnc2c1S(=O)(=O)Nc1ccsc1C(=O)N[C@@H](CCCNC(=N)N)C(=O)O` it is less than 20 µM; for `N=C(N)NCCC[C@H](NC(=O)c1sccc1NS(=O)(=O)c1cccc(CCc2cccnc2)c1)C(=O)O` it is less than 20 µM.
On to `N=C(N)NCCC[C@H](NC(=O)c1sccc1NS(=O)(=O)c1cccc(C#CCN)c1)C(=O)O`, for which the 50% inhibitory concentration (IC50) is less than 20 µM.
The same measure, in the same setting: the figure for `N=C(N)NCCC[C@H](NC(=O)c1sccc1NS(=O)(=O)c1ccc(N)cc1)C(=O)O` is less than 20 µM.
The same measure, in the same setting: with `Cc1nn(C)c(Cl)c1CNc1cccc(S(=O)(=O)Nc2ccsc2C(=O)N[C@@H](CCCNC(=N)N)C(=O)O)c1` the figure was less than 20 µM.
Same read-out and setting: with `N=C(N)NCCC[C@H](NC(=O)c1sccc1NS(=O)(=O)c1cc2ccccc2o1)C(=O)O` the figure was less than 20 µM; with `Cc1nc(CNc2cccc(S(=O)(=O)Nc3ccsc3C(=O)N[C@@H](CCCNC(=N)N)C(=O)O)c2)c(C)o1`, less than 20 µM; with `N=C(N)NCCC[C@H](NC(=O)c1sccc1NS(=O)(=O)c1ccccc1[N+](=O)[O-])C(=O)O`, less than 20 µM.
As to `N=C(N)NCCC[C@H](NC(=O)c1sccc1NS(=O)(=O)c1cccc(N)c1)C(=O)O`, the concentration for half-maximal inhibition (IC50) is less than 20 µM.
On the same count and under the same terms, with `CN1CCOc2cc(-c3cc4c(c(S(=O)(=O)Nc5ccsc5C(=O)N[C@@H](CCCNC(=N)N)C(=O)O)c3)OCC4)cnc21` the figure was less than 20 µM.
On the same count and under the same terms, the figure for `CC(=O)Nc1ccc(S(=O)(=O)Nc2ccsc2C(=O)N[C@@H](CCCNC(=N)N)C(=O)O)cc1` is less than 20 µM.
As to `Cc1noc(C)c1-c1cc2c(c(S(=O)(=O)Nc3ccsc3C(=O)N[C@@H](CCCNC(=N)N)C(=O)O)c1)OCC2`, the IC50 was less than 20 µM.

The next test deals with Neuropilin-1 (Homo sapiens) (UniProt O14786). As to the kind of experiment: Inhibition of neuropilin-1 in human A549 cells assessed as decrease in cell migration at 10 to 100 uM after 4 hrs by trans-well assay. Format: cell-based.
Neuropilin-1 (Homo sapiens), sequence (O14786 whole entry): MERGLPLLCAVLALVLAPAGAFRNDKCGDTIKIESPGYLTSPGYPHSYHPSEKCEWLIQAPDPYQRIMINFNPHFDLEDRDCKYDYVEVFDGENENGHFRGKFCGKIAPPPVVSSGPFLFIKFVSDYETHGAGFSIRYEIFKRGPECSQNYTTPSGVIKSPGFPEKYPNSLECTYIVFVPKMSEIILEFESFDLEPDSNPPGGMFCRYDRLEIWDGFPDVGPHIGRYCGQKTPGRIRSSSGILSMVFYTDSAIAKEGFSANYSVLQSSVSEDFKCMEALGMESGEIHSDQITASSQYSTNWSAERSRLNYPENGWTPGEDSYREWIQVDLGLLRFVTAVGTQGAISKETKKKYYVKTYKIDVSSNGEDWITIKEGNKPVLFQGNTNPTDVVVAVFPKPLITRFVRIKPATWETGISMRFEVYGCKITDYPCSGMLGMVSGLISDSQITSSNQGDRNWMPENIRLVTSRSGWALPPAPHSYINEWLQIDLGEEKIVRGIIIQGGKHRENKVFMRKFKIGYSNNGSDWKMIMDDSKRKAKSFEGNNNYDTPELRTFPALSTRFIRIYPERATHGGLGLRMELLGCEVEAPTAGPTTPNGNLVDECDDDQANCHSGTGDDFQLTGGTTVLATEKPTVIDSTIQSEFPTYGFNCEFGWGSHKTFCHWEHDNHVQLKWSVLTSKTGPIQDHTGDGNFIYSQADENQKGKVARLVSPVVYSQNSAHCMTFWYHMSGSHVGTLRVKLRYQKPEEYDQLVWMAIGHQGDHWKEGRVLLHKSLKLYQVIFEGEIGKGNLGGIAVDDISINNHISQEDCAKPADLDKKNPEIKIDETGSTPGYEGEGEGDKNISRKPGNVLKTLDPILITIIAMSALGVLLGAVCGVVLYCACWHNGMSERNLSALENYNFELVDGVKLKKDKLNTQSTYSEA
Settings: not given
As for `N=C(N)NCCC[C@H](NC(=O)c1sccc1NS(=O)(=O)c1ccc(N)cc1)C(=O)O`, the inhibition result is “Active”.

A further test shares this target. As to the kind of experiment: Inhibition of neuropilin-1 in human DU145 cells assessed as decrease in cell adhesion to extracellular matrix proteins at 10 to 100 uM after 1.5 hrs by calcein-AM dye based fluorescence assay. The settings on record: DU-145.
For the compound `N=C(N)NCCC[C@H](NC(=O)c1sccc1NS(=O)(=O)c1ccc(N)cc1)C(=O)O`, the inhibition result was “Active”.

For the next test the target is unchanged. As to the kind of experiment: Inhibition of neuropilin-1 in human ACHN cells assessed as decrease in cell migration at 10 to 100 uM after 4 hrs by trans-well assay.
Settings: not given
Format: cell-based.
Consider `N=C(N)NCCC[C@H](NC(=O)c1sccc1NS(=O)(=O)c1ccc(N)cc1)C(=O)O`, for which the inhibition result is “Active”.

The values above are taken from ChEMBL document CHEMBL3880430, “Arginine derivatives with NP-1 antagonistic activity” (2012).
